Results: patent publication US20160158368A1, “METHODS AND COMPOSITIONS FOR THE TREATMENT OF HISTIOCYTOSIS” (Therapure Biopharma Inc., priority 2014, published 2016)

Key:
U937 cells = assay: PrestoBlue cell viability assay, U937 cells; assay type: cell-based, human; conditions: for growth inhibition: U937 cells
SU-DHL-1 cells = assay: PrestoBlue cell viability assay, SU-DHL-1 cells; assay type: cell-based, human; conditions: for growth inhibition: SU-DHL-1 cells

With `Nc1nc(Cl)nc2c1ncn2C1CC(O)C(CO)O1` (stereo not drawn) [cladribine, 5-(6-amino-2-chloro-purin-9-yl)-2-(hydroxymethyl)oxolan-3-ol] the IC50 (U937 cells; Homo sapiens, U-937, U937, 48 hours, cell viability, n=3, read-out: average half maximal inhibitory concentration (IC50)) was 42 nM, the growth inhibition (U937 cells) was “dose-dependent growth inhibition” and the IC50 (SU-DHL-1 cells; Homo sapiens, SU-DHL-1, 48 hours, cell viability, n=3, read-out: average half maximal inhibitory concentration (IC50)) was 204 nM. The growth inhibition (SU-DHL-1 cells) was “dose-dependent growth inhibition”.

In the case of “hemoglobin: human hemoglobin, a CD163 ligand, unconjugated control”, the growth inhibition (U937 cells) is reported as “not” and the growth inhibition (SU-DHL-1 cells) is reported as “not”.
